Patent US9650395B2, “Antibacterial compounds and methods for use” (PTC Therapeutics, Inc., priority 2011, dated 2017)
Converted amounts (≈) assume the structure as drawn. Read-outs that look alike come from different tables or passages of the source.

Key:
[1] = tested on: E. coli ELZ4251 (MDR clinical isolate); assay: Antibacterial activity, MIC, MDR E. coli ELZ4251; format: cell-based, Escherichia coli; details: Escherichia coli, E. coli ELZ4251, MDR clinical isolate; read-out: MIC ELZ4251
[2] = tested on: Gram-positive Staphylococcus aureus (S. aureus) 29213; assay: Antibacterial activity, microbroth dilution MIC, S. aureus 29213; format: cell-based; details: Staphylococcus aureus; S. aureus 29213, microbroth dilution; read-out: MIC, 29213
[3] = tested on: super sensitive Gram-negative Escherichia coli (E. coli) BAS849; assay: Antibacterial activity, microbroth dilution MIC, E. coli BAS849; format: cell-based; details: Escherichia coli, read-out: MIC, BAS849
[4] = tested on: E. coli ELZ4000 (MDR clinical isolate); assay: Antibacterial activity, MIC, MDR E. coli ELZ4000; format: cell-based, Escherichia coli; details: Escherichia coli; E. coli ELZ4000, MDR clinical isolate; read-out: MIC ELZ4000
[5] = tested on: control Gram-negative E. coli 25922 strain; assay: Antibacterial activity, microbroth dilution MIC, E. coli 25922; format: cell-based, Escherichia coli; details: Escherichia coli; E. coli 25922, microbroth dilution; read-out: MIC, 25922
[6] = tested on: quinolone resistant E. coli LZ3111; assay: Antibacterial activity, MIC, quinolone resistant E. coli LZ3111; format: cell-based, Escherichia coli; details: Escherichia coli, read-out: MIC, LZ3111
From the text: The antibacterial activity from a microbroth dilution method may be presented as the minimum inhibitory concentration (MIC in […]). The MIC value is the lowest concentration of a drug which prevents macroscopically visible bacterial growth under test conditions.
Mutations in these regions are known to confer a high level resistance to the quinolone class of antibiotics.

[7] = E. coli BAS849, microbroth dilution

SMILES	MIC [1] [µg/mL]	MIC [2] [µg/mL]	MIC [3, 7] [µg/mL]	MIC [4] [µg/mL]	MIC [5] [µg/mL]	MIC [6] [µg/mL]	MIC [3] [µg/mL]
CCc1cc(C(=O)O)c(=O)[nH]c1-c1ccc(OC)cc1 [Cpd 24, 5-ethyl-6-(4-methoxyphenyl)-2-oxo-1,2-dihydropyridine-3-carboxylic acid]	12.5 to 150 (≈ 45.7 to 549 µM)	12.5 to 150 (≈ 45.7 to 549 µM)	< 1	12.5 to 150 (≈ 45.7 to 549 µM)	3.5 to 12.5 (≈ 12.8 to 45.7 µM)	12.5 to 150 (≈ 45.7 to 549 µM)	–
CCc1cc(C(=O)O)c(=O)[nH]c1-c1ccc(N2CC[C@H](N=[N+]=[N-])C2)cc1 [Cpd 130, 6-{4-[(3S)-3-azidopyrrolidin-1-yl]phenyl}-5-ethyl-2-oxo-1,2-dihydropyridine-3-carboxylic acid]	12.5 to 150 (≈ 35.4 to 424 µM)	3.5 to 12.5 (≈ 9.9 to 35.4 µM)	< 1	12.5 to 150 (≈ 35.4 to 424 µM)	1 to 3.5 (≈ 2.83 to 9.9 µM)	12.5 to 150 (≈ 35.4 to 424 µM)	–
CCc1c(-c2ccc(N3C[C@H]4C[C@@H](N(Cc5ccccc5)Cc5ccccc5)C[C@H]4C3)cc2)[nH]c(=O)c(C(=O)O)c1O [Cpd 251, 6-{4-[(3aR,5r,6aS)-5-(dibenzylamino)hexahydrocyclopenta[c]pyrrol-2(1H)-yl]phenyl}-5-ethyl-4-hydroxy-2-oxo-1,2-dihydropyridine-3-carboxylic acid]	–	12.5 to 150 (≈ 22.2 to 266 µM)	12.5 to 150 (≈ 22.2 to 266 µM)	–	12.5 to 150 (≈ 22.2 to 266 µM)	12.5 to 150 (≈ 22.2 to 266 µM)	–
CCc1c(-c2ccc(N3CC4CCCN(C(=O)OC(C)(C)C)C4C3)cc2)[nH]c(=O)c(C(=O)O)c1O (stereo not shown) [Cpd 253, 6-{4-[1-(tert-butoxycarbonyl)octahydro-6H-pyrrolo[3,4-b]pyridin-6-yl]phenyl}-5-ethyl-4-hydroxy-2-oxo-1,2-dihydropyridine-3-carboxylic acid]	–	3.5 to 12.5 (≈ 7.24 to 25.8 µM)	< 1	–	12.5 to 150 (≈ 25.8 to 310 µM)	12.5 to 150 (≈ 25.8 to 310 µM)	–
CCc1c(-c2ccc(N3CCC(CN(C)Cc4ccccc4)C3)cc2)[nH]c(=O)c(C(=O)O)c1O (stereo not shown) [Cpd 255, 6-[4-(3-{[benzyl(methyl)amino]methyl}pyrrolidin-1-yl)phenyl]-5-ethyl-4-hydroxy-2-oxo-1,2-dihydropyridine-3-carboxylic acid]	–	3.5 to 12.5 (≈ 7.58 to 27.1 µM)	3.5 to 12.5 (≈ 7.58 to 27.1 µM)	–	12.5 to 150 (≈ 27.1 to 325 µM)	12.5 to 150 (≈ 27.1 to 325 µM)	–
CCc1c(-c2ccc(N3C[C@H]4CNC[C@H]4C3)cc2)[nH]c(=O)c(C(=O)O)c1O.Cl [Cpd 274, 5-ethyl-6-{4-[(3aR,6aS)-hexahydropyrrolo[3,4-c]pyrrol-2(1H)-yl]phenyl}-4-hydroxy-2-oxo-1,2-dihydropyridine-3-carboxylic acid hydrochloride]	–	12.5 to 150	1 to 3.5	–	12.5 to 150	12.5 to 150	–
CCc1c(-c2ccc(N3CCC4(CCNCC4)C3)cc2)[nH]c(=O)c(C(=O)O)c1O.Cl [Cpd 278, 6-[4-(2,8-diazaspiro[4.5]dec-2-yl)phenyl]-5-ethyl-4-hydroxy-2-oxo-1,2-dihydropyridine-3-carboxylic acid hydrochloride]	–	3.5 to 12.5	< 1	–	3.5 to 12.5	12.5 to 150	–
CCc1c(-c2ccc(N3CCC(O)CC3)cc2)[nH]c(=O)c(C(=O)O)c1O [Cpd 280, 5-ethyl-4-hydroxy-6-[4-(4-hydroxypiperidin-1-yl)phenyl]-2-oxo-1,2-dihydropyridine-3-carboxylic acid]	–	12.5 to 150 (≈ 34.9 to 419 µM)	< 1	–	12.5 to 150 (≈ 34.9 to 419 µM)	12.5 to 150 (≈ 34.9 to 419 µM)	–
CCc1c(-c2ccc(N3CCC(OCc4ccccc4)CC3)cc2)[nH]c(=O)c(C(=O)O)c1O [Cpd 281, 6-{4-[4-(benzyloxy)piperidin-1-yl]phenyl}-5-ethyl-4-hydroxy-2-oxo-1,2-dihydropyridine-3-carboxylic acid]	–	12.5 to 150 (≈ 27.9 to 334 µM)	3.5 to 12.5 (≈ 7.8 to 27.9 µM)	–	12.5 to 150 (≈ 27.9 to 334 µM)	12.5 to 150 (≈ 27.9 to 334 µM)	–
CCc1c(-c2ccc(N3CCC(OC)CC3)cc2)[nH]c(=O)c(C(=O)O)c1O [Cpd 282, 5-ethyl-4-hydroxy-6-[4-(4-methoxypiperidin-1-yl)phenyl]-2-oxo-1,2-dihydropyridine-3-carboxylic acid]	–	12.5 to 150 (≈ 33.6 to 403 µM)	< 1	–	12.5 to 150 (≈ 33.6 to 403 µM)	12.5 to 150 (≈ 33.6 to 403 µM)	–
CCc1c(-c2ccc(N3CCC(N(Cc4ccccc4)Cc4ccccc4)CC3)cc2)[nH]c(=O)c(C(=O)O)c1O [Cpd 283, 6-{4-[4-(dibenzylamino)piperidin-1-yl]phenyl}-5-ethyl-4-hydroxy-2-oxo-1,2-dihydropyridine-3-carboxylic acid]	–	12.5 to 150 (≈ 23.2 to 279 µM)	3.5 to 12.5 (≈ 6.51 to 23.2 µM)	–	12.5 to 150 (≈ 23.2 to 279 µM)	12.5 to 150 (≈ 23.2 to 279 µM)	–
CCc1c(-c2ccc(N3CCC(N)CC3)cc2)[nH]c(=O)c(C(=O)O)c1O [Cpd 284, 6-[4-(4-aminopiperidin-1-yl)phenyl]-5-ethyl-4-hydroxy-2-oxo-1,2-dihydropyridine-3-carboxylic acid]	–	12.5 to 150 (≈ 35 to 420 µM)	3.5 to 12.5 (≈ 9.79 to 35 µM)	–	12.5 to 150 (≈ 35 to 420 µM)	12.5 to 150 (≈ 35 to 420 µM)	–
CCc1c(-c2ccc(N3CCC(n4ccnn4)C3)cc2)[nH]c(=O)c(C(=O)O)c1O (stereo not shown) [Cpd 287, 5-ethyl-4-hydroxy-2-oxo-6-{4-[3-(1H-1,2,3-triazol-1-yl)pyrrolidin-1-yl]phenyl}-1,2-dihydropyridine-3-carboxylic acid]	–	3.5 to 12.5 (≈ 8.85 to 31.6 µM)	< 1	–	1 to 3.5 (≈ 2.53 to 8.85 µM)	12.5 to 150 (≈ 31.6 to 379 µM)	–
CCc1c(-c2ccc(N3CCC(C)(O)C3)cc2)[nH]c(=O)c(C(=O)O)c1O (stereo not shown) [Cpd 289, 5-ethyl-4-hydroxy-6-[4-(3-hydroxy-3-methylpyrrolidin-1-yl)phenyl]-2-oxo-1,2-dihydropyridine-3-carboxylic acid]	–	1 to 3.5 (≈ 2.79 to 9.77 µM)	< 1	–	1 to 3.5 (≈ 2.79 to 9.77 µM)	12.5 to 150 (≈ 34.9 to 419 µM)	–
CCc1c(-c2ccc(N3CCC(N(C)C)C3)cc2F)[nH]c(=O)c(C(=O)O)c1O (stereo not shown) [Cpd 291, 6-{4-[3-(dimethylamino)pyrrolidin-1-yl]-2-fluorophenyl}-5-ethyl-4-hydroxy-2-oxo-1,2-dihydropyridine-3-carboxylic acid]	–	12.5 to 150 (≈ 32.1 to 385 µM)	1 to 3.5 (≈ 2.57 to 8.99 µM)	–	3.5 to 12.5 (≈ 8.99 to 32.1 µM)	12.5 to 150 (≈ 32.1 to 385 µM)	–
CCc1c(-c2ccc(N3CC4CC3CN4C(=O)OC(C)(C)C)cc2)[nH]c(=O)c(C(=O)O)c1O (stereo not shown) [Cpd 294, 6-{4-[5-(tert-butoxycarbonyl)-2,5-diazabicyclo[2.2.1]hept-2-yl]phenyl}-5-ethyl-4-hydroxy-2-oxo-1,2-dihydropyridine-3-carboxylic acid]	–	1 to 3.5 (≈ 2.2 to 7.68 µM)	–	–	12.5 to 150 (≈ 27.4 to 329 µM)	12.5 to 150 (≈ 27.4 to 329 µM)	< 1
CCc1c(-c2ccc(N3CC4CC3CN4)cc2)[nH]c(=O)c(C(=O)O)c1O.O=C(O)C(F)(F)F (stereo not shown) [Cpd 295, 6-[4-(2,5-diazabicyclo[2.2.1]hept-2-yl)phenyl]-5-ethyl-4-hydroxy-2-oxo-1,2-dihydropyridine-3-carboxylic acid trifluoroacetate]	–	12.5 to 150	–	–	12.5 to 150	12.5 to 150	1 to 3.5
CCc1c(-c2ccc(N3CC4=CCCC[C@@H]4C3)cc2)[nH]c(=O)c(C(=O)O)c1O.Cl [Cpd 297, 5-ethyl-6-{4-[(3aS)-1,3,3a,4,5,6-hexahydro-2H-isoindol-2-yl]phenyl}-4-hydroxy-2-oxo-1,2-dihydropyridine-3-carboxylic acid hydrochloride]	–	3.5 to 12.5	< 1	–	12.5 to 150	12.5 to 150	–
CCc1cc(C(=O)O)c(=O)[nH]c1-c1cc(CN2CCCC2)n(C)c1 [Cpd 348, 5-ethyl-6-(1-methyl-5-(pyrrolidin-1-ylmethyl)-1H-pyrrol-3-yl)-2-oxo-1,2-dihydropyridine-3-carboxylic acid]	–	12.5 to 150 (≈ 37.9 to 455 µM)	3.5 to 12.5 (≈ 10.6 to 37.9 µM)	–	12.5 to 150 (≈ 37.9 to 455 µM)	12.5 to 150 (≈ 37.9 to 455 µM)	–
CCc1cc(C(=O)O)c(=O)[nH]c1-c1cc(CN2CCCCC2)n(C)c1 [Cpd 349, 5-ethyl-6-(1-methyl-5-(piperidin-1-ylmethyl)-1H-pyrrol-3-yl)-2-oxo-1,2-dihydropyridine-3-carboxylic acid]	–	12.5 to 150 (≈ 36.4 to 437 µM)	12.5 to 150 (≈ 36.4 to 437 µM)	–	12.5 to 150 (≈ 36.4 to 437 µM)	12.5 to 150 (≈ 36.4 to 437 µM)	–
CCc1cc(C(=O)O)c(=O)[nH]c1-c1ccc(CN2CCCC2)n1C [Cpd 350, 5-ethyl-6-(1-methyl-5-(pyrrolidin-1-ylmethyl)-1H-pyrrol-2-yl)-2-oxo-1,2-dihydropyridine-3-carboxylic acid]	–	12.5 to 150 (≈ 37.9 to 455 µM)	12.5 to 150 (≈ 37.9 to 455 µM)	–	12.5 to 150 (≈ 37.9 to 455 µM)	12.5 to 150 (≈ 37.9 to 455 µM)	–
CCc1cc(C(=O)O)c(=O)[nH]c1-c1ccc(CN(C)C)n1C [Cpd 351, 6-(5-((dimethylamino)methyl)-1-methyl-1H-pyrrol-2-yl)-5-ethyl-2-oxo-1,2-dihydropyridine-3-carboxylic acid]	–	12.5 to 150 (≈ 41.2 to 494 µM)	12.5 to 150 (≈ 41.2 to 494 µM)	–	12.5 to 150 (≈ 41.2 to 494 µM)	12.5 to 150 (≈ 41.2 to 494 µM)	–
CCc1cc(C(=O)O)c(=O)[nH]c1-c1ccc(CN2CCCCC2)n1C [Cpd 352, 5-ethyl-6-(1-methyl-5-(piperidin-1-ylmethyl)-1H-pyrrol-2-yl)-2-oxo-1,2-dihydropyridine-3-carboxylic acid]	–	12.5 to 150 (≈ 36.4 to 437 µM)	12.5 to 150 (≈ 36.4 to 437 µM)	–	12.5 to 150 (≈ 36.4 to 437 µM)	12.5 to 150 (≈ 36.4 to 437 µM)	–
CCc1cc(C(=O)O)c(=O)[nH]c1-c1ccc(CN2CCC(N(C)C)C2)n1C (stereo not shown) [Cpd 353, 6-(5-((3-(dimethylamino)pyrrolidin-1-yl)methyl)-1-methyl-1H-pyrrol-2-yl)-5-ethyl-2-oxo-1,2-dihydropyridine-3-carboxylic acid]	–	12.5 to 150 (≈ 33.6 to 403 µM)	12.5 to 150 (≈ 33.6 to 403 µM)	–	12.5 to 150 (≈ 33.6 to 403 µM)	12.5 to 150 (≈ 33.6 to 403 µM)	–
